This passage reports EC50 results from US10584115B2, “Substituted pyridine and pyrazine BMI-1 inhibitors” (PTC Therapeutics, Inc., priority 2013, dated 2020).

The term EC50 denotes the concentration giving half of the maximal effect.

Counter-ions that a name gives are not always drawn.

One assay has as its system Bmi-1 protein. The experiment in a line: Sandwich ELISA Assay (Bmi-1 protein level in HT-1080 cells after compound treatment). The assay is classed as cell-based. The conditions noted are these: Table 1, Bmi-1 sandwich ELISA, read-out: ELISA EC50 value for Bmi-1 protein. A digest of the protocol: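 HT-1080 cells exposed to compounds for 40–48 h at 37 °C (0.5% DMSO final), then lysed. Bmi-1 in lysates measured by sandwich ELISA (mouse monoclonal capture, rabbit anti-Bmi-1 detection, HRP anti-rabbit, TMB), read at OD450 with OD570 reference against a recombinant Bmi-1 standard curve (0–8000 pg/mL).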
A general note: In an ELISA, binding on a coated surface is turned into a signal by an enzyme label.
Regarding `COc1ccc2nc(C(F)(F)F)c(-c3cncc(Nc4ccc(Cl)cc4)n3)n2c1` [Cpd 679, N-(4-chlorophenyl)-6-[6-methoxy-2-(trifluoromethyl)imidazo[1,2-a]pyridin-3-yl]pyrazin-2-amine], the EC50 was 10 to 100 nM.
On the same count and under the same terms, with `COc1ccc2nc(C(F)(F)F)c(-c3cccc(Nc4ccc(O)cc4)n3)n2c1` [compound 113, 4-({6-[6-methoxy-2-(trifluoromethyl)imidazo[1,2-a]pyridin-3-yl]pyridin-2-yl}amino)phenol] the figure was 100 to 3000 nM.
For the compound `Cc1nc2ccccc2n1-c1cncc(Nc2ccc(C(F)F)cc2)n1` [compound 507, N-[4-(difluoromethyl)phenyl]-6-(2-methyl-1H-benzimidazol-1-yl)pyrazin-2-amine], the EC50 fell in the range of 10 to 100 nM.
Same read-out and setting: the figure for `Cc1nc2cc(F)ccc2n1-c1cncc(Nc2ccc(Cl)nc2)n1` [compound 426, N-(6-chloropyridin-3-yl)-6-(5-fluoro-2-methyl-1H-benzimidazol-1-yl)pyrazin-2-amine] is 100 to 3000 nM; for `N#Cc1ccc(Nc2cncc(-c3c(C(F)(F)F)nc4ccc(F)cn34)n2)cc1` [compound 668, 4-({6-[6-fluoro-2-(trifluoromethyl)imidazo[1,2-a]pyridin-3-yl]pyrazin-2-yl}amino)benzonitrile] it is 100 to 3000 nM; for `OCc1nc2ccccc2n1-c1cncc(Nc2ccc(C(F)(F)F)cc2)n1` [compound 66, [1-(6-{[4-(trifluoromethyl)phenyl]amino}pyrazin-2-yl)-1H-benzimidazol-2-yl]methanol] it is 100 to 3000 nM.
In the case of `COc1cc(Nc2ccc(OC(F)F)cc2)nc(-c2c(C(F)(F)F)nc3ccccn23)c1` [Cpd 125, N-[4-(difluoromethoxy)phenyl]-4-methoxy-6-[2-(trifluoromethyl)imidazo[1,2-a]pyridin-3-yl]pyridin-2-amine], the EC50 lay in the range of 100 to 3000 nM.
`Fc1cnc2nc(C3CC3)n(-c3cncc(Nc4ccc(OC(F)F)cc4)n3)c2c1` [compound 455, 6-(2-cyclopropyl-6-fluoro-1H-imidazo[4,5-b]pyridin-1-yl)-N-[4-(difluoromethoxy)phenyl]pyrazin-2-amine]: the EC50 was 10 to 100 nM.
Take `Cc1nc2ccccc2n1-c1cc(N)c(F)c(Nc2ccc(C(F)(F)F)cc2)n1` [compound 515, 3-fluoro-6-(2-methyl-1H-benzimidazol-1-yl)-N^2-[4-(trifluoromethyl)phenyl]pyridine-2,4-diamine]: the EC50 was in the range of 10 to 100 nM.
As to `FC1CCc2nc(C(F)(F)F)c(-c3cncc(Nc4ccc(C(F)(F)F)cc4)n3)n2C1` (stereo not drawn) [compound 406, 6-[6-fluoro-2-(trifluoromethyl)-5,6,7,8-tetrahydroimidazo[1,2-a]pyridin-3-yl]-N-[4-(trifluoromethyl)phenyl]pyrazin-2-amine], the EC50 lay in the range of 10 to 100 nM.
Take `Cc1nn2ccccc2c1-c1cncc(Nc2cccc(Cl)c2)n1` [compound 570, N-(3-chlorophenyl)-6-(2-methylpyrazolo[1,5-a]pyridin-3-yl)pyrazin-2-amine]: the concentration giving a half-maximal response (EC50) is 100 to 3000 nM.
The same measure, in the same setting: with `Cc1nc2ccc(O)cn2c1-c1cncc(Nc2ccc(C(F)(F)F)cc2)n1` [compound 378, 2-methyl-3-(6-{[4-(trifluoromethyl)phenyl]amino}pyrazin-2-yl)imidazo[1,2-a]pyridin-6-ol] the figure was 10 to 100 nM; with `Fc1ccc(Nc2cncc(-c3c(C(F)(F)F)nc4ccccn34)n2)cc1` [Cpd 9, N-(4-fluorophenyl)-6-[2-(trifluoromethyl)imidazo[1,2-a]pyridin-3-yl]pyrazin-2-amine], 100 to 3000 nM.
Consider `Cc1nc2ccc(F)cc2n1-c1cccc(Nc2ccc(OC(F)F)cc2)n1` [Cpd 584, N-[4-(difluoromethoxy)phenyl]-6-(6-fluoro-2-methyl-1H-benzimidazol-1-yl)pyridin-2-amine], for which the EC50 fell in the range of 10 to 100 nM.
With `Cc1ccc(Nc2cc(C#N)cc(-n3c(C)nc4ccc(F)cc43)n2)cc1` [compound 611, 2-(6-fluoro-2-methyl-1H-benzimidazol-1-yl)-6-[(4-methylphenyl)amino]pyridine-4-carbonitrile], the EC50 was in the range of 1 to 10 nM.
For `COc1c(F)cc(Nc2cc(C#N)cc(-c3c(C)nc4ccc(F)cn34)n2)cc1F` [compound 313, 2-[(3,5-difluoro-4-methoxyphenyl)amino]-6-(6-fluoro-2-methylimidazo[1,2-a]pyridin-3-yl)pyridine-4-carbonitrile], the EC50 is 1 to 10 nM.
As to `Cc1nc2cc(F)c(F)cc2n1-c1cncc(Nc2ccc(OC(F)F)cc2)n1` [compound 199, N-[4-(difluoromethoxy)phenyl]-6-(5,6-difluoro-2-methyl-1H-benzimidazol-1-yl)pyrazin-2-amine], the EC50 was in the range of 1 to 10 nM.
As to `Cc1nc2ccc(F)cc2n1-c1cccc(Nc2ccc(OC(F)(F)F)cc2)n1` [Cpd 585, 6-(6-fluoro-2-methyl-1H-benzimidazol-1-yl)-N-[4-(trifluoromethoxy)phenyl]pyridin-2-amine], the 50% effective concentration (EC50) lay within 100 to 3000 nM.
Turning to `Cc1nc2ncc(F)cn2c1-c1cc(C#N)cc(Nc2ccc(OC(F)(F)F)cc2)n1` [compound 438, 2-(6-fluoro-2-methylimidazo[1,2-a]pyrimidin-3-yl)-6-{[4-(trifluoromethoxy)phenyl]amino}pyridine-4-carbonitrile], the EC50 was 10 to 100 nM.
`Cc1ccc(Nc2cccc(-n3c(C)nc4cc(F)c(F)cc43)n2)cc1` [compound 614, 6-(5,6-difluoro-2-methyl-1H-benzimidazol-1-yl)-N-(4-methylphenyl)pyridin-2-amine]: the EC50 lay in the range of 10 to 100 nM.
For the compound `Nc1cc(Nc2ccc(C(F)(F)F)cc2)nc(-c2c(C(F)(F)F)nc3ccccn23)c1` [compound 159, 6-[2-(trifluoromethyl)imidazo[1,2-a]pyridin-3-yl]-N^2-[4-(trifluoromethyl)phenyl]pyridine-2,4-diamine], the EC50 lay in the range of 1 to 10 nM.
On to `CCc1nc2ncc(Cl)cc2n1-c1cc(C#N)cc(Nc2ccc(OC(F)F)cc2)n1` [compound 452, 2-(6-chloro-2-ethyl-1H-imidazo[4,5-b]pyridin-1-yl)-6-{[4-(difluoromethoxy)phenyl]amino}pyridine-4-carbonitrile], for which the EC50 was in the range of 10 to 100 nM.
Regarding `Cc1nc2ccccc2n1-c1cncc(Nc2ccc(I)cc2)n1` [compound 619, N-(4-iodophenyl)-6-(2-methyl-1H-benzimidazol-1-yl)pyrazin-2-amine], the EC50 lay in the range of 1 to 10 nM.
As to `Cc1nc(Br)c(C)n1-c1cncc(Nc2ccc(C(F)(F)F)cc2)n1` [compound 341, 6-(4-bromo-2,5-dimethyl-1H-imidazol-1-yl)-N-[4-(trifluoromethyl)phenyl]pyrazin-2-amine], the EC50 is 100 to 3000 nM.
Same read-out and setting: with `Cc1nc2cc(F)c(F)cc2n1-c1cncc(Nc2ccc3c(c2)OC(F)(F)O3)n1` [compound 579, N-(2,2-difluoro-1,3-benzodioxol-5-yl)-6-(5,6-difluoro-2-methyl-1H-benzimidazol-1-yl)pyrazin-2-amine] the figure was 100 to 3000 nM.
In the case of `Cc1nc2ncccc2n1-c1cncc(Nc2ccc(C(F)(F)F)cc2)n1` [compound 82, 6-(2-methyl-1H-imidazo[4,5-b]pyridin-1-yl)-N-[4-(trifluoromethyl)phenyl]pyrazin-2-amine], the EC50 was in the range of 10 to 100 nM.
For `FC(F)(F)c1ccc(Nc2cccc(-n3c(C(F)(F)F)nc4ccccc43)n2)cc1` [Cpd 40, 6-[2-(trifluoromethyl)-1H-benzimidazol-1-yl]-N-[4-(trifluoromethyl)phenyl]pyridin-2-amine], the EC50 was in the range of 100 to 3000 nM.
On to `COc1ccc2nc(C(F)(F)F)c(-c3cccc(Nc4ccc(OC=O)cc4)n3)n2c1` [compound 112, 4-({6-[6-methoxy-2-(trifluoromethyl)imidazo[1,2-a]pyridin-3-yl]pyridin-2-yl}amino)phenyl formate], for which the EC50 lay in the range of 100 to 3000 nM.
Turning to `C#Cc1ccc(Nc2cncc(-n3c(C)nc4ccccc43)n2)cc1` [compound 665, N-(4-ethynylphenyl)-6-(2-methyl-1H-benzimidazol-1-yl)pyrazin-2-amine], the EC50 was in the range of 100 to 3000 nM.
On the same count and under the same terms, the figure for `C=Cc1ccc(Nc2cncc(-n3c(C)nc4ccccc43)n2)cc1` [compound 666, N-(4-ethenylphenyl)-6-(2-methyl-1H-benzimidazol-1-yl)pyrazin-2-amine] is 100 to 3000 nM; for `Cc1ccc(Nc2cncc(-n3c(C)nc4ccccc43)n2)c(N)c1` [compound 563, 4-methyl-N^1-[6-(2-methyl-1H-benzimidazol-1-yl)pyrazin-2-yl]benzene-1,2-diamine] it is 10 to 100 nM; for `Cc1nc2c(F)cccc2n1-c1cc(C#N)cc(Nc2ccc(OC(F)F)cc2)n1` [Cpd 436, 2-{[4-(difluoromethoxy)phenyl]amino}-6-(4-fluoro-2-methyl-1H-benzimidazol-1-yl)pyridine-4-carbonitrile] it is 10 to 100 nM.
For `CC(C)c1nc2ccccc2n1-c1cncc(Nc2ccc(C(F)(F)F)cc2)n1` [compound 52, 6-[2-(propan-2-yl)-1H-benzimidazol-1-yl]-N-[4-(trifluoromethyl)phenyl]pyrazin-2-amine], the concentration for a half-maximal effect (EC50) is 10 to 100 nM.
Consider `FC(F)(F)c1ccc(Nc2cncc(-c3cccc4[nH]ccc34)n2)cc1` [compound 407, 6-(1H-indol-4-yl)-N-[4-(trifluoromethyl)phenyl]pyrazin-2-amine], for which the EC50 was 100 to 3000 nM.
As to `CSc1nc2ccccn2c1-c1cncc(Nc2ccc(C(F)(F)F)cc2)n1` [compound 191, 6-[2-(methylsulfanyl)imidazo[1,2-a]pyridin-3-yl]-N-[4-(trifluoromethyl)phenyl]pyrazin-2-amine], the EC50 fell in the range of 1 to 10 nM.

Still in this assay, the particulars now being: read-out: ELISA EC50 value for Bmi-1 protein, Table 1, Bmi-1 sandwich ELISA.
`O=[N+]([O-])c1cc(Nc2ccc(C(F)(F)F)cc2)nc(-c2c(C(F)(F)F)nc3ccc(F)cn23)c1` [compound 286, 6-[6-fluoro-2-(trifluoromethyl)imidazo[1,2-a]pyridin-3-yl]-4-nitro-N-[4-(trifluoromethyl)phenyl]pyridin-2-amine]: the EC50 was 10 to 100 nM.
